Measurements as given in patent US8829024B2, “Combination steroid and glucocorticoid receptor antagonist therapy” (Corcept Therapeutics, Inc., priority 2011, dated 2014).

How the values were obtained:
[1] = tested on: GR induced transrepression (LPS activated TNFα release); assay: Glucocorticosteroid transrepression assay (LPS activated TNFα release in peripheral blood mononuclear cells); format: cell-based; details: human PBMC, 10 ng/ml LPS; for blockade of dexamethasone induced repression of LPS activated TNFα release (antagonism of transrepression): in presence of 50 nM dexamethasone, FIG. 1b
Description: Using a cell-based model (human peripheral blood mononuclear cells), dexamethasone was administered to the cells and the release of TNFα was measured. After addition of the GR modulator of the present invention, the release of TNFα was again measured and compared to the amount released in the absence of the GR modulator.
Human peripheral blood mononuclear cells were isolated and distributed in 96-well plates at a density of 2×10^5 cells/well in medium. Compounds were tested at 7 concentrations (semi-log dilutions) and prepared at 5× final assay concentration in 1.5% DMSO. Following a preincubation of 30 minutes with compounds the plates are then incubated in presence of 50 nM dexamethasone or media for 30 minutes. TNFα release was activated by overnight incubation with 10 ng/ml LPS. Human TNFα was measured using chemiluminescence detected on the SECTOR® Imager 6000 (Mesoscale). Dexamethasone was used to inhibit LPS activated TNFα release via the glucocorticoid receptor. […] In some cases, CORT-108297 was added in the absence of dexamethasone to determine if CORT-108297 inhibited LPS activated TNFα release.

[2] = tested on: GR induced transactivation (tyrosine amino transferase expression); assay: Glucocorticosteroid transactivation assay (tyrosine amino transferase expression in primary hepatocytes); format: cell-based; details: human liver hepatocytes; for inhibition of dexamethasone induced expression of tyrosine amino transferase (antagonism of GR induced transactivation): in presence of 50 nM dexamethasone, FIG. 2b
From the text: GR modulators of the present invention that inhibit GR induced transactivation can be identified by measuring the amount of tyrosine amino transferase expressed in the presence of the GR induced transactivation in a cell model (human liver hepatocytes).
In this example, dexamethasone induces the expression of tyrosine amino transferase by transactivation. Typically, glucocorticosteroids, such as the synthetic dexamethasone, bind the ligand-binding domain of the glucocorticoid receptor (GR) to promote nuclear translocation. In the nucleus, the DNA binding domain directs dimerization on imperfect DNA palindromes known as simple glucocorticoid response elements (GREs) to transcriptionally activate genes including tyrosine amino transferase (TAT).
Primary hepatocytes were distributed in 96-well collagen coated plates and equilibrated in media (without hydrocortisone) for 6 hours. Compounds were tested at 6 concentrations (semi-log dilutions) and prepared in 0.2% DMSO in the presence of 50 nM dexamethasone or media. Hepatocytes in the presence of compound were incubated for 24 hours, washed in PBS and lysed for 30 minutes (30 μl lysis volume). The TAT enzyme assay was initiated by the addition of 170 μl TAT assay buffer (substrate) for 1 hour. The reaction was terminated by the addition of 30 μl 10N KOH and the 96-well plates incubated for a further 30 min […] to allow formation of the aromatic aldehyde product, p-hydroxybenzaldehyde. Absorbance was read at 340 nm on a spectrophotometer.
Reagents: TAT assay buffer: 0.2 M KH2PO4 pH7.4 containing 5.4 mM L-tyrosine, 10.8 mM α-ketoglutaric acid and 0.06 mM Pyridoxal-5-phosphate monohydrate.
Dexamethasone was used to increase the expression of tyrosine amino transferase in human liver hepatocytes.

| Compound | blockade of dexamethasone induced repression of LPS activated TNFα release (antagonism of transrepression) [1] | inhibition of dexamethasone induced expression of tyrosine amino transferase (antagonism of GR induced transactivation) [2] | inhibition of LPS activated TNFα release, compound alone (transrepression agonism), in words ([1]; FIG. 1a) | maximal inhibition of LPS activated TNFα release, compound alone ([1]; at micromolar concentrations, no dexamethasone, FIG. 1a) | expression of tyrosine amino transferase (increase), compound alone ([2]; all concentrations assayed, no dexamethasone, FIG. 2a) | concentration giving maximal increase in TAT expression (transactivation) ([2]; compound alone, FIG. 2a) |
| --- | --- | --- | --- | --- | --- | --- |
| CC#C[C@]1(O)CC[C@H]2[C@@H]3CCC4=CC(=O)CCC4=C3[C@@H](c3ccc(N(C)C)cc3)C[C@@]21C [mifepristone, reference compound] | completely blocks this effect | inhibit the increased expression of tyrosine amino transferase | – | – | – | – |
| CCOC[C@]12Cc3cnn(-c4ccc(F)cc4)c3C=C1CCN(S(=O)(=O)c1ccc(C(F)(F)F)cc1)C2 [CORT-108297] | only shows partial blockade at higher concentrations | full potent antagonist of GR induced transactivation | weak partial agonist of GR induced transrepression | 48% | ≤ 0% | – |
| C[C@@H]1C[C@H]2[C@@H]3CCC4=CC(=O)C=C[C@]4(C)[C@@]3(F)[C@@H](O)C[C@]2(C)[C@@]1(O)C(=O)CO [dexamethasone, reference compound] | – | – | – | – | – | about 100 nM |
